According to PubChem BioAssay (NCI):
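Five compound concentrations were applied to cells in 96-well plates for 48 hours; endpoints were derived by simple linear interpolation of the resulting dose-response curve. Here, GI50 denotes the concentration required for 50% inhibition of growth. The concentration for full growth arrest is given as TGI.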

How the values were obtained:
Assay in all cases: NCI-60 cell line screen, 48 h
[1] = tested on: SK-MEL-2 melanoma
[2] = tested on: KM12 colon
[3] = tested on: SF-268 CNS
[4] = tested on: K-562 leukemia
[5] = tested on: HCC-2998 colon
[6] = tested on: HT29 colon
[7] = tested on: UO-31 renal
[8] = tested on: OVCAR-5 ovarian
[9] = tested on: MDA-MB-231 breast
[10] = tested on: HCT-116 colon

SMILES	GI50 [1] [µM]	TGI [1] [µM]	GI50 [2] [µM]	TGI [2] [µM]	GI50 [3] [µM]	TGI [3] [µM]	GI50 [4] [µM]	TGI [4] [µM]	GI50 [5] [µM]	TGI [5] [µM]	GI50 [6] [µM]	TGI [6] [µM]	GI50 [7] [µM]	TGI [7] [µM]	GI50 [8] [µM]	TGI [8] [µM]	GI50 [9] [µM]	TGI [9] [µM]	GI50 [10] [µM]	TGI [10] [µM]
O=C(N/N=C/c1coc2ccc(Cl)cc2c1=O)c1cc(O)c(O)c(O)c1	> 100	> 100	21.5	69.1	> 100	> 100	15.2	55.6	15.9	35.3	63.8	> 100	40	> 100	24.6	74.9	19.3	45	19.3	70
C=CCC(NCc1ccccc1)c1cn(C(=O)OCC)c2ccccc12 (centres undefined)	33.1	> 100	28.4	> 100	> 100	> 100	2.37	15	14	28.3	29.6	> 100	30.4	> 100	16	44.6	18.2	44.1	13	25.7
O=C1OC(=O)c2c1cc1cc3c(cc1c2-c1ccc2c(c1)OCO2)OCO3		> 100		> 100		> 100		> 100		> 100		> 100		> 100		> 100		> 100		> 100
O=[N+]([O-])c1cc2c(ccc3ccccc32)o1	0.202	0.416	0.973	4.02	0.455	9.73	0.376	9.01	0.252	0.823	0.307	1.8	0.403	2.82	1.53	12.6	0.442	2.89	0.215	0.855
C[C@H]1CCC/C=C/[C@@H]2C[C@H](O)C[C@H]2[C@H](O)C(O)C(O)C(=O)O1 (some centres undefined)	3.81	> 23.9	0.396	1.38	1.19	> 100	2.38	> 23.6	2.15	> 22.4	1.24	17.9	3.44	> 76.1	6.24	> 100	2.5	4.84	3.38	19
O=C1c2c[n+](Cc3ccccc3)ccc2-c2nc3ccccc3c3ccnc1c23	0.646	1.77	1.06	4.28	0.765	3.66	0.733	7.83	0.609	1.74	0.971	3.46	0.756	17	1.63	10.5	0.711	3.21	0.422	1.86
COc1cc2c(cc1OCCCN1CCN(CCCOc3cc4c(cc3OC)C(=O)N3C[C@H](F)C[C@H]3C=N4)CC1)N=C[C@@H]1C[C@@H](F)CN1C2=O	0.394	3.29	0.18		0.0248	5.94	0.0269	3.66	0.121	0.357	0.148	> 37.2	0.823	2.65	0.198	3.24	0.116	0.852	0.034	0.252
O=C1C2C3C=CC(C2C(=O)N1CN1CCOCC1)C1C2C(=O)N(CN4CCOCC4)C(=O)C2C31 (centres undefined)		> 61.1		> 63.4		> 64		> 79.3		> 61.2		> 100		> 84.6		> 92.7		> 100		> 62.8
Cc1nc2ccccc2c(/C=C/c2ccc(F)cc2)c1C(=O)/C=C/c1ccccc1	3.22	15.8	2.38	6.82	3.45	> 100	2.44	8.24	1.76	3.32	2.81	> 100	1.29	2.67	1.92	3.95	2.24	6.33	1.25	3.66
CC(C)OC(=O)NNc1c(Cl)cc(Cl)cc1Cl		> 100		> 100		> 100		> 100		> 100		> 100		> 100		> 100		> 100		> 100
Nc1ccccc1SC(CC(=O)c1ccccc1)c1c(Cl)cccc1Cl (centres undefined)	6.33	18.2	2.26	5.4	3.43	13.4	2.76	7.69	2.61	5.73	2.29	5.03	1.27	4.64	4.29	15.7	3.86	20.4	1.81	4.56
CC12CC(Br)(Br)C(=O)C3C1CCCC32		30.4		28.3		35.1		11.7		13.8		24.2		15		32.1		7.62		5.12
COC(=O)c1cc2c3cc(Cl)ccc3[nH]c2c2ncccc12	> 100	> 100	> 100	> 100	> 100	> 100	> 100	> 100	> 100	> 100	> 100	> 100	> 100	> 100	> 100	> 100	> 100	> 100	> 100	> 100
COc1cc(/C=C/C(=O)c2cccc(-n3cc(-c4ccccc4)[nH]c3=O)c2)ccc1O	3.81	15.1	2.02	4.68	2.74	8.31	2.23	9.29	1.92	4.21	3.77	> 100	2.01	8.73	6.25	14.1	3.36	15.2	1.8	4.11
O=NN(CC(=O)NNc1ccccc1)CC(=O)NNc1ccccc1	> 100	> 100	0.893	> 100	22.1	> 100	0.579	> 100	4.89	> 100	> 100	> 100	2.22	> 100	> 100	> 100	3.54	> 100	> 100	> 100
Nc1ncnc2occ(-c3ccc(NC(=O)Nc4cccc(C(F)(F)F)c4)cc3)c12	5.39	11.6	0.123	4.51	3.54	9.83	1.3	25	6.11	14.3	3.12	10.6	2.88	11	5.5	13.3	5.8	16.4	2.98	16
O=C1C=CC(=O)N1c1ccc2ccccc2c1	17.9	35.3	24.1	71	14.5	28.3	3.45	> 100	17.8	32.8	4.94	27.8	12.4	25.1	17.9	34	16.1	33	3.93	12.4
COc1cc(/C=C2\CC3C4CC=C5C[C@@H](N6CCCC6)CC[C@]5(C)C4CC[C@]3(C)[C@H]2OC(C)=O)ccc1OCCCn1ccnc1 (some centres undefined)	7.54	> 50	0.63	4.02	3.87	> 29.2	0.119	0.36	0.178	0.568	0.162	> 50	2.01	> 50	7.15	15.3	0.404	1.01	0.0938	1.52
O=C(NCCc1nccs1)c1cnc2c(S)cccc2c1	3.57	26.5	2.88	17.8	3.66	27.1	0.98	> 100	10.5	29.1	4.34	37	3.26	16	10	41.6	3.33	56.4	1.13	10.2
